Measured values: PMC10145367, “Acute and Transgenerational Effects of Non-Steroidal Anti-Inflammatory Drugs on Daphnia magna” (Toxics, 2023)
In brackets after ≈: the same amount, converted by molar mass. Read-outs that look alike come from different tables or passages of the source.

Experiments:
[1] = test system: Daphnia magna; assay: Acute toxicity (immobilization) of neonates, 24 h toxicity curves
Method: Daphnids were cultured under a 16 h:8 h of light:dark photoperiod at 20 °C in OECD media (final concentrations 0.29 g CaCl2·2H2O/L, 0.123 g MgSO4·7H2O/L, 0.065 g NaHCO3/L, 0.0058 g KCl/L, 2 μg Na2SeO3/L, pH 7.7) [28]. […] Neonates (<24 h) were collected from the third brood of their mothers and used for experiments. To assess toxicity, 15 neonates were exposed to each NSAID separately, and their 1:1 mixture in a final volume of 50 mL OECD media with four replicates per concentration tested. […] For toxicity, the OECD guidelines state that at least 40 animals (preferably in four groups of 10 animals should be used at each test concentration); however, in our study, we exceeded that number to 60 animals. Toxicity curves were plotted for 24 h exposures, and EC values were calculated using the four-parameter logistic (4PL) model, following the equation Span = Top − Bottom and Y = Bottom + (Top − Bottom)/(1 + 10^((LogIC50 − X) × HillSlope)), using the GraphPad software. The parameters top and bottom were commonly fixed to 100 and 0, accordingly. Mortality in daphnids was assessed as their immobilization [27].

[2] = test system: male zebrafish (Danio rerio); set-up: method as in PMID 29027214; settings: 96 h, ref [13]; cited from earlier work
[3] = test system: patients; set-up: method as in PMID 26865183; settings: patients receiving it; ref [11]; cited from earlier work
[4] = test system: lipase (LIP); assay: Lipase activity in daphnid homogenate after chronic/transgenerational exposure; format: in vivo, Daphnia magna
Method: (§3) Chronic exposure was performed at 1 mg/L of each NSAID and their 1:1 mixture separately, which was selected as a non-lethal concentration. For enzyme activities in chronic and transgenerational exposures, neonates were cultured for two consecutive generations and following a 21-day recovery period (Figure 1B). […] Media and NSAIDs were renewed twice a week. […] Daphnids were fed daily with 2 mL fresh algae (C. reinhardtii) with a concentration of 6 million cells/mL, and a seaweed extract (Ascophylum nodosum) was supplemented only on the days of media change.
(§4) Five 7, 14, and 21-day-old animals were used per biological replicate and homogenized in 0.5 mL ddH2O using a pestle homogenizer. The homogenate was cleared by centrifugation (12,000× g for 5 min at 5 °C), and the clear supernatant was collected and used to assess the enzyme activity as described elsewhere [28, 41]. 200 μL appropriately diluted sample in buffer was assessed for the activity of phosphatases (in 100 mM acetic acid pH 4.5 for acid phosphatase or 100 mM boric acid pH 9.8 for alkaline phosphatase) using 50 μL of the substrate p-nitrophenyl phosphate (8 mM) and monitoring the production of p-nitrophenol at 405 nm after its alkalinization (with 50 μL 4M NaOH). In addition, the activities of β-galactosidase and lipase were measured with the same experimental conditions by the generation of nitrophenol from the catalysis of o-nitrophenyl-β-galactoside or p-nitrophenyl butyrate, respectively, but in phosphate buffer pH 7.2. […] Protein was quantified by an ultrasensitive Bradford protocol to normalize the results [44].

[5] = test system: peptidase (PEP); assay: Peptidase activity in daphnid homogenate after chronic/transgenerational exposure; format: in vivo, Daphnia magna
[6] = test system: Daphnia magna; assay: Feeding assay (ingestion of fluorescent microparticles); format: in vivo; settings: neonates, 1 mg/L for 24 h
Method: After 24 h, twenty […] transferred in a 12-well plate with 6 mL OECD containing the carboxylate-modified polystyrene, fluorescent red microparticles (2.0 μm mean particle size) at a concentration of 13 mg/L. The animals were exposed to the microplastic for up to 90 min, and media was collected every 15 min to estimate the removed microparticles by fluorescence at Ex 560 Em 590 nm using a TECAN plate reader. The concentration of microparticles in the media was optimized to ensure an excess of microparticles for the accurate quantification of ingestion. Furthermore, we have extensively tested these particles, which show no toxicity to the […] for the short exposure periods used. We performed control experiments with neonates, as they would be more sensitive, for even up to 10 h to microplastics at even higher concentrations (up to 52 mg/L), and all animals from all experiments following the feeding assay were alive and healthy. Fluorescence was expressed to the amount of ingested microparticles using a standard curve. To confirm the ingestion of microparticles in the gut of […], animals were imaged with a stereoscope and fluorescence microscopy using the TRITC filter for carboxyl functionalized particles. […] The animals were fed daily with 2 mL of fresh algae (Chlamydomonas reinhardtii) with a concentration of 6 million cells/mL. […]

[7] = test system: alkaline phosphatase (ALP)
Method: (§1) Chronic exposure was performed at 1 mg/L of each NSAID and their 1:1 mixture separately, which was selected as a non-lethal concentration. For enzyme activities in chronic and transgenerational exposures, neonates were cultured for two consecutive generations and following a 21-day recovery period (Figure 1B). […] Media and NSAIDs were renewed twice a week. Although the concentration of NSAIDs was not measured throughout the exposure, their renewal twice a week was sufficient to exert their action. […] Daphnids were fed daily with 2 mL fresh algae (C. reinhardtii) with a concentration of 6 million cells/mL, and a seaweed extract (Ascophylum nodosum) was supplemented only on the days of media change.
(§2) Five 7, 14, and 21-day-old animals were used per biological replicate and homogenized in 0.5 mL ddH2O using a pestle homogenizer. The homogenate was cleared by centrifugation (12,000× g for 5 min at 5 °C), and the clear supernatant was collected and used to assess the enzyme activity as described elsewhere. 200 μL appropriately diluted sample in buffer was assessed for the activity of phosphatases (in 100 mM acetic acid pH 4.5 for acid phosphatase or 100 mM boric acid pH 9.8 for alkaline phosphatase) using 50 μL of the substrate p-nitrophenyl phosphate (8 mM) and monitoring the production of p-nitrophenol at 405 nm after its alkalinization (with 50 μL 4M NaOH). In addition, the activities of β-galactosidase and lipase were measured with the same experimental conditions by the generation of nitrophenol from the catalysis of o-nitrophenyl-β-galactoside or p-nitrophenyl butyrate, respectively, but in phosphate buffer pH 7.2. Glutathione-S-transferase (GST) activity was assessed by the reaction of reduced glutathione with 1-chloro-2,4-dinitrobenzene. 200 μL appropriately diluted sample in phosphate buffer pH 7.2 was mixed with 50 μL 2 mM CDNB, and 6 mM reduced glutathione, and the formation of the complex was measured continuously at 340 nm and converted to units of activity with the extinction coefficient. Protein was quantified by an ultrasensitive Bradford protocol to normalize the results.

[8] = test system: glutathione-S-transferase (GST)
Method: as §1, §2

[9] = test system: β-galactosidase (β-gal)
Method: as §1, §2

[10] = test system: Thamnocephalus platyurus; settings: after 24 h of exposure; ref [3],[5]; cited from earlier work
[11] = test system: Oryzias latipes; set-up: method as in PMID 27234514, PMID 19336980; settings: after 24 h of exposure; ref [3],[5]; cited from earlier work
[12] = test system: D. magna; set-up: method as in PMID 27234514, PMID 19336980; settings: after 24 h of exposure; ref [3],[5]; cited from earlier work
[13] = test system: acid phosphatase (ACP); assay: Acid phosphatase activity in daphnid homogenate after chronic/transgenerational exposure; format: in vivo, Daphnia magna
Method: as §3, §4

[14] = test system: peptidase (PEP); settings: acute exposure of daphnids; ref [28]; cited from earlier work
[15] = test system: glutathione-S-transferase (GST); set-up: method as in PMID 32806449; settings: intermediate concentrations (1.2 and 6 μg/L); ref [67]; cited from earlier work
[16] = test system: Daphnia magna; settings: D5 daphnids; ref [67]; cited from earlier work
[17] = neonates, 24 h exposure, immobilization
[18] = 1 mg/L, age 7 days, first generation
[19] = 1 mg/L, age 14 days, first generation
[20] = 1 mg/L, age 21 days, 2nd generation
[21] = 1 mg/L, age 21 days, first generation
[22] = age 21 days, 3rd generation recovery in clean OECD media after two generations at 1 mg/L

`COc1ccc2c(c1)c(CC(=O)O)c(C)n2C(=O)c1ccc(Cl)cc1` [Indomethacin] showed an EC50 ([1]; Daphnia magna, 24 h) of 17.5 µg/mL (≈ 48.8 µM), an EC1 [1, 17] of 6.61 mg/L and an EC5 [1, 17] of 9.37 mg/L. The EC10 [1, 17] was 10.97 µg/mL (≈ 30.7 µM), the EC20 [1, 17] was 13.02 µg/mL (≈ 36.4 µM) and the EC50 [2] was 76.30 µg/mL (≈ 213 µM). The “patients with adverse effects” value [3] was 30–60%, the LIP enzyme activity [4, 18] was 72.94 ± 11.09 units/mg protein and the “change of LIP activity compared with DMSO” value [4, 18] was −47%. For the same compound, the LIP enzyme activity [4, 19] was 193.84 ± 25.81 units/mg protein, the LIP enzyme activity [4, 20] was 56.41 ± 3.09 units/mg protein and the “change of LIP activity compared with DMSO” value [4, 20] was −15%. For the same compound, the LIP enzyme activity [4, 21] was 90.86 ± 0.42 units/mg protein, the LIP enzyme activity [4, 22] was 51.19 ± 2.04 units/mg protein and the PEP enzyme activity [5, 18] was 27.26 ± 5.01 units/mg protein. For the same compound, the PEP enzyme activity [5, 19] was 1.94 ± 0.06 units/mg protein, the PEP enzyme activity [5, 20] was 6.81 ± 0.26 units/mg protein and the “change of PEP activity compared with DMSO” value [5, 20] was −14%. For the same compound, the PEP enzyme activity [5, 21] was 10.82 ± 0.6 units/mg protein, the “change of PEP activity compared with DMSO” value [5, 21] was “+16%” and the PEP enzyme activity [5, 22] was 5.33 ± 0.49 units/mg protein. For the same compound, the “reduction of feeding rate compared to DMSO” value [6] was 35%, the ALP enzyme activity [7, 18] was 6.22 ± 0.21 units/mg protein and the “change of ALP activity compared with DMSO” value [7, 18] was −13%. It also gave an ALP enzyme activity [7, 19] of 3.05 ± 0.29 units/mg protein, an ALP enzyme activity [7, 20] of 3.8 ± 0.18 units/mg protein and an ALP enzyme activity [7, 21] of 5.05 ± 0.17 units/mg protein. It also gave an ALP enzyme activity [7, 22] of 4.16 ± 0.24 units/mg protein, a GST enzyme activity [8, 18] of 107.9 ± 11.6 munits/mg protein and a GST enzyme activity [8, 19] of 144.7 ± 5.4 munits/mg protein. For the same compound, the GST enzyme activity [8, 20] was 94.6 ± 2.9 munits/mg protein, the “change of GST activity compared with DMSO” value [8, 20] was −9% and the GST enzyme activity [8, 21] was 52.3 ± 1.5 munits/mg protein. For the same compound, the GST enzyme activity [8, 22] was 154.7 ± 4.2 munits/mg protein, the “change of β-gal activity compared with DMSO” value [9, 18] was −40% and the β-gal enzyme activity [9, 18] was 0.91 ± 0.14 units/mg protein. For the same compound, the β-gal enzyme activity [9, 19] was 2.23 ± 0.39 units/mg protein, the β-gal enzyme activity [9, 20] was 4.7 ± 0.23 units/mg protein and the “change of β-gal activity compared with DMSO” value [9, 21] was “+11%”. The β-gal enzyme activity [9, 21] was 5.93 ± 0.19 units/mg protein, the β-gal enzyme activity [9, 22] was 5.03 ± 0.44 units/mg protein and the lethal concentration [10] was 16.14 mg/L. For the same compound, the lethal concentration [11] was 81.92 mg/L, the lethal concentration [12] was 22.38 mg/L and the ACP enzyme activity [13, 18] was 6.82 ± 0.51 units/mg protein. For the same compound, the ACP enzyme activity [13, 19] was 6.02 ± 0.71 units/mg protein, the ACP enzyme activity [13, 20] was 2.67 ± 0.15 units/mg protein and the ACP enzyme activity [13, 21] was 2.84 ± 0.13 units/mg protein. For the same compound, the “change of ACP activity compared with DMSO” value [13, 21] was −10% and the ACP enzyme activity [13, 22] was 3.21 ± 0.28 units/mg protein.

For `CC(=O)Oc1ccccc1C(=O)O` [acetylsalicylic acid], the “effect on activity of PEP” value [14] is listed as “decreased”.

In the case of `CC(C(=O)O)c1cccc(C(=O)c2ccccc2)c1` (centres unmarked) [ketoprofen], the “effect on activity of GST” value [15] is listed as “increased the activity of GST” and the effect on feeding [16] is listed as “did not affect the feeding”.
